From patent publication US12030903B2, “Antiviral compounds” (Gilead Sciences, Inc., priority 2020, dated 2024) come the findings set out here.

One may read the EC50 as the concentration that produces a half-maximal response. In general, CC50 refers to the concentration at which the toxic effect on the cells reaches its halfway point. Low readings indicate greater toxicity to the cells, high ones lower toxicity to the cells.

For series [1], the system named is RSV strain A2. Description: RSV HEp-2 EC50 (infectious cytopathic cell protection assay). Conditions: human respiratory syncytial virus, HEp-2, 96 h, read-out: RSV Hep-2 EC50. In kind it is cell-based, RSV strain A2; HEp-2 cells. An outline of the steps: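 HEp-2 cells (50,000/mL) infected with titered RSV stock, added onto compound in 3-fold serial dilutions; 4 days at 37 °C. Cell viability read by CellTiter-Glo luminescence; percent inhibition of virus-induced cytopathic effect derived from remaining viability against 0% and 100% inhibition controls.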
Background: Cytopathic effects are the visible damage that an infection or toxin causes in cultured cells.

A short description of series [2]: HEp-2 CC50 (cytotoxicity in uninfected HEp-2 cells). It is filed as cell-based. The note with it: human, CellTiter Glo. As to the method:
Instead, an uninfected cell mixture at the same density is added at 20 uL/well to plates containing prediluted compounds, also at 100 nL/sample. Assay plates are then incubated for 4 days followed by a cell viability test using the same CellTiter Glo reagent addition and measurement of luminescent readouts. Untreated cell and cells treated at 2 μM puromycin (Sigma, St. Louis, MO) serve as 100% and 0% cell viability control, respectively.
(In ATP-based viability assays light output follows the ATP content of the culture.)

For series [3], the system named is Dengue serotype 2 New Guinea C (NGC) strain. The experiment in a line: DENV-2 Huh-7 EC50 (qPCR of viral RNA in infected Huh7 cells). It is filed as cell-based. The note with it: Dengue virus, DENV2, Huh-7, Huh7 cells infected with Dengue serotype 2 NGC, MOI=0.1, 48 hours. An outline of the steps:
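Huh7 cells were infected 2 h at 37 °C with DENV-2 NGC at MOI 0.1, then plated with graded compound doses (0.25% DMSO) in triplicate for 48 h. Viral RNA was quantified by duplex TaqMan qPCR against GAPDH. EC50 was normalized to positive and no-compound controls.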
A general note: In qPCR the cycle at which signal appears reflects the starting amount.

The nature of series [4]: Huh-7 CC50 (CellTiter Glo viability). In kind it is cell-based, Human. The note with it: human, Huh7 hepatocarcinoma cells. An outline of the steps: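 Huh7 cells in 10% FCS DMEM plated at 1-2×10^4 per well in triplicate with graded compound doses, 0.25% DMSO throughout. Viability after 48 hours by CellTiter Glo luminescence, normalized to no-compound and no-cell controls; CC50 from curve fitting.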

Series [5] can be described thus: moDC CC50 (CellTiter Glo viability). In kind it is cell-based, Human. The note with it: human, uninfected moDCs. How it is done:
Human monocyte-derived dendritic cells (moDCs) were derived from CD14+ monocytes (AllCells) cultured in Human Mo-DC Differentiation medium containing GM-CSF and IL-4 (Miltenyi Biotec). On day 7, moDCs were harvested by mechanical disruption, washed and cultured in triplicate at […] cells/well in 96-well plates with compounds dispensed at graded doses (Hewlett-Packard D300 Digital Dispenser). All wells were normalized to 0.25% DMSO. After 48 hours, CellTiter Glo (Promega) was added and incubated for 10 minutes at room temp before reading on a luminometer. % viability curves were calculated against no compound and no cell control wells. CC50 values were determined using Prism Graphpad software.

The test system of series [6] is Dengue 2, New Guinea strain (NGC). The experiment in a line: DENV-2 moDC EC50 (qPCR of viral RNA in infected moDCs). In kind it is cell-based, New Guinea strain (NGC); human moDCs. The note with it: Dengue virus, human moDCs infected with Dengue 2 NGC, MOI=0.1, 48 hours. As to the method: Example 82. DENV-2 moDC EC50
Human monocyte-derived dendritic cells (moDCs) were derived from CD14+ monocytes (AllCells) cultured in Human Mo-DC Differentiation medium containing GM-CSF and IL-4 (Miltenyi Biotec). On day 7, moDCs were harvested by mechanical disruption, washed and suspended in serum-free RPMI. moDCs were infected with Vero-derived Dengue 2, New Guinea strain (NGC) at a MOI=0.1 for two hours in serum-free RPMI with gentle agitation at 37° C. Cells were washed and resuspended in 10% serum-containing RPMI (Gibco, supplemented with sodium pyruvate, NEAA, Penicillin-Streptomycin). […] were plated in triplicate in 96-well plates with compounds dispensed at graded doses (Hewlett-Packard D300 Digital Dispenser). All wells were normalized to 0.25% DMSO. At 48 hours, cells were washed with 1×PBS and all supernatants removed. Total RNA was extracted using RNEasy 96 plates (Qiagen) and used to generate first-strand cDNA using XLT cDNA 5× Supermix (QuantaBio). cDNA was used as a template in a Taqman qPCR duplex reaction specific to DENV2 viral and GAPDH gene expression. EC50 values were determined using Prism Graphpad software, with normalization to a positive control and no compound negative control wells.

Regarding `CCCCOCCOC(=O)[C@H](C)NP(=O)(OC[C@@]1(CF)O[C@@H](c2ccc3c(N)ncnn23)[C@H](O)[C@@H]1O)Oc1ccccc1` (stereo partly drawn) [Example 42, 2-butoxyethyl ((((2R,3S,4R,5S)-5-(4-aminopyrrolo[2,1-f][1,2,4]triazin-7-yl)-2-(fluoromethyl)-3,4-dihydroxytetrahydrofuran-2-yl)methoxy)(phenoxy)phosphoryl)-L-alaninate], the figures for the EC50 in series [1], in series [3] and in series [6] were 0.86 µM, 0.667 µM and 0.258 µM, respectively. Moreover, in series [2], the CC50 at 4 days was greater than 100 µM. Moreover, the CC50 at 48 h in series [4] came to 21.1 µM; in series [5], 5.33 µM.

As for `COC(C)(C)COC(=O)[C@H](C)NP(=O)(OC[C@@]1(CF)O[C@@H](c2ccc3c(N)ncnn23)[C@H](O)[C@@H]1O)Oc1ccccc1` (stereo partly drawn) [Example 43, 2-methoxy-2-methylpropyl ((((2R,3S,4R,5S)-5-(4-aminopyrrolo[2,1-f][1,2,4]triazin-7-yl)-2-(fluoromethyl)-3,4-dihydroxytetrahydrofuran-2-yl)methoxy)(phenoxy)phosphoryl)-L-alaninate], the EC50 in series [1] worked out at 2.16 µM; in series [3] it was 1.2 µM; in series [6] it was 0.626 µM. This compound gave a CC50 at 4 days in series [2] greater than 100 µM. For the same compound, the CC50 at 48 h is greater than 25 µM in series [4] and 17.9 µM in series [5].

On to `CCOCCOCCOC(=O)[C@H](C)NP(=O)(OC[C@@]1(CF)O[C@@H](c2ccc3c(N)ncnn23)[C@H](O)[C@@H]1O)Oc1ccccc1` (stereo partly drawn) [Example 45, 2-(2-ethoxyethoxy)ethyl ((((2R,3S,4R,5S)-5-(4-aminopyrrolo[2,1-f][1,2,4]triazin-7-yl)-2-(fluoromethyl)-3,4-dihydroxytetrahydrofuran-2-yl)methoxy)(phenoxy)phosphoryl)-L-alaninate], for which the EC50 in series [1] is 21.8 µM; in series [3], 4.58 µM; in series [6], greater than 5 µM. This compound also displayed a CC50 at 4 days in series [2] greater than 100 µM. Besides, the CC50 at 48 h in series [4] and in series [5] was greater than 25 µM in each case.

In the case of `CCCCCOC(=O)[C@H](C)NP(=O)(OC[C@@]1(CF)O[C@@H](c2ccc3c(N)ncnn23)[C@H](O)[C@@H]1O)Oc1ccccc1` (stereo partly drawn) [Example 59, pentyl ((((2R,3S,4R,5S)-5-(4-aminopyrrolo[2,1-f][1,2,4]triazin-7-yl)-2-(fluoromethyl)-3,4-dihydroxytetrahydrofuran-2-yl)methoxy)(phenoxy)phosphoryl)-L-alaninate], the EC50 was 0.298 µM in series [1], 0.153 µM in series [3] and 0.062 µM in series [6]. This compound also showed a CC50 at 4 days in series [2] of 45.1 µM. Moreover, the CC50 at 48 h in series [4] was determined as 11.3 µM; in series [5], 7.04 µM.

For the compound `CCCC(CCC)COC(=O)[C@H](C)NP(=O)(OC[C@@]1(CF)O[C@@H](c2ccc3c(N)ncnn23)[C@H](O)[C@@H]1O)Oc1ccccc1` (stereo partly drawn) [Example 68, 2-propylpentyl ((((2R,3S,4R,5S)-5-(4-aminopyrrolo[2,1-f][1,2,4]triazin-7-yl)-2-(fluoromethyl)-3,4-dihydroxytetrahydrofuran-2-yl)methoxy)(phenoxy)phosphoryl)-L-alaninate], the EC50 is 0.141 µM in series [1], 0.278 µM in series [3] and 0.169 µM in series [6]. In series [2], this compound showed a CC50 at 4 days greater than 100 µM. In addition, the CC50 at 48 h was greater than 25 µM in series [4] and 6.26 µM in series [5].

`CC(C)COC(=O)[C@H](C)NP(=O)(OC[C@@]1(CF)O[C@@H](c2ccc3c(N)ncnn23)[C@H](O)[C@@H]1O)Oc1ccccc1` (stereo partly drawn) [Example 70, isobutyl ((((2R,3S,4R,5S)-5-(4-aminopyrrolo[2,1-f][1,2,4]triazin-7-yl)-2-(fluoromethyl)-3,4-dihydroxytetrahydrofuran-2-yl)methoxy)(phenoxy)phosphoryl)-L-alaninate]: the results for the EC50 in series [1], in series [3] and in series [6] were 0.212 µM, 0.245 µM and 0.19 µM, respectively. Besides, the CC50 at 4 days in series [2] was determined as 69.4 µM. Moreover, the CC50 at 48 h in series [4] is 10.6 µM; in series [5] it was 3.57 µM.
